Assay results taken from PubChem BioAssay (NCI).
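The compound was tested at five concentrations on cells cultured in 96-well plates, with a 48-hour exposure period. TGI: concentration producing complete growth inhibition.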

Columns and labels:
Test in all cases: inhibition of tumour cell growth, NCI panel, 48 h
[1] = test system: 786-0 renal
[2] = test system: A498 renal
[3] = test system: A549 NSCLC
[4] = test system: ACHN renal
[5] = test system: BT-549 breast
[6] = test system: CAKI-1 renal
[7] = test system: CCRF-CEM leukemia
[8] = test system: COLO 205 colon
[9] = test system: DU-145 prostate
[10] = test system: EKVX NSCLC
[11] = test system: HCC-2998 colon
[12] = test system: HCT-116 colon
[13] = test system: HL-60(TB) leukemia
[14] = test system: HOP-62 NSCLC
[15] = test system: HOP-92 NSCLC
[16] = test system: HT29 colon
[17] = test system: IGROV1 ovarian
[18] = test system: K-562 leukemia
[19] = test system: KM12 colon
[20] = test system: LOX IMVI melanoma
[21] = test system: M14 melanoma
[22] = test system: MALME-3M melanoma
[23] = test system: MCF7 breast
[24] = test system: MDA-MB-231 breast
[25] = test system: MDA-MB-435
[26] = test system: MDA-N
[27] = test system: MOLT-4 leukemia
[28] = test system: NCI-H226 lung
[29] = test system: NCI-H23 lung
[30] = test system: NCI-H460 lung
[31] = test system: NCI-H522 lung
[32] = test system: NCI/ADR-RES ovarian
[33] = test system: OVCAR-3 ovarian
[34] = test system: OVCAR-4 ovarian
[35] = test system: OVCAR-5 ovarian
[36] = test system: OVCAR-8 ovarian
[37] = test system: PC-3 prostate
[38] = test system: RPMI-8226 leukemia
[39] = test system: RXF 393 renal
[40] = test system: SF-295 CNS
[41] = test system: SF-539 CNS
[42] = test system: SK-MEL-2 melanoma
[43] = test system: SK-MEL-28 melanoma
[44] = test system: SK-MEL-5 melanoma
[45] = test system: SN12C renal
[46] = test system: SNB-19 CNS
[47] = test system: SNB-75 CNS
[48] = test system: SR leukemia
[49] = test system: SW-620 colon
[50] = test system: U251 CNS
[51] = test system: UACC-257 melanoma
[52] = test system: UACC-62 melanoma
[53] = test system: UO-31 renal
[54] = test system: HCT-15 colon
[55] = test system: HS 578T breast
[56] = test system: SF-268 CNS
[57] = test system: SK-OV-3 ovarian
[58] = test system: T-47D breast
[59] = test system: TK-10 renal

O=C1ON=C2C3CC4CC12CC1(C3)C(=O)ON=C41
TGI [1]: > 100 µM
TGI [2]: > 100 µM
TGI [3]: > 100 µM
TGI [4]: > 100 µM
TGI [5]: > 100 µM
TGI [6]: > 100 µM
TGI [7]: > 100 µM
TGI [8]: > 100 µM
TGI [9]: > 100 µM
TGI [10]: > 100 µM
TGI [11]: > 100 µM
TGI [12]: > 100 µM
TGI [13]: > 100 µM
TGI [14]: > 100 µM
TGI [15]: > 100 µM
TGI [16]: > 100 µM
TGI [17]: > 100 µM
TGI [18]: > 100 µM
TGI [19]: > 100 µM
TGI [20]: > 100 µM
TGI [21]: > 100 µM
TGI [22]: > 100 µM
TGI [23]: > 100 µM
TGI [24]: > 100 µM
TGI [25]: > 100 µM
TGI [26]: > 100 µM
TGI [27]: > 100 µM
TGI [28]: > 100 µM
TGI [29]: > 100 µM
TGI [30]: > 100 µM
TGI [31]: > 100 µM
TGI [32]: > 100 µM
TGI [33]: > 100 µM
TGI [34]: > 100 µM
TGI [35]: > 100 µM
TGI [36]: > 100 µM
TGI [37]: > 100 µM
TGI [38]: > 100 µM
TGI [39]: > 100 µM
TGI [40]: > 100 µM
TGI [41]: > 100 µM
TGI [42]: > 100 µM
TGI [43]: > 100 µM
TGI [44]: > 100 µM
TGI [45]: > 100 µM
TGI [46]: > 100 µM
TGI [47]: > 100 µM
TGI [48]: > 100 µM
TGI [49]: > 100 µM
TGI [50]: > 100 µM
TGI [51]: > 100 µM
TGI [52]: > 100 µM
TGI [53]: > 100 µM

CC(=O)O[C@H]1[C@@H](OC(C)=O)C(C)(C)/C=C/[C@H](C)C(=O)[C@@]2(OC(C)=O)C[C@@](C)(OC(C)=O)[C@H](OC(C)=O)[C@@H]2[C@H]2OC(=O)CC[C@@]2(OC(=O)c2ccccc2)[C@@H]1OCC(C)C
TGI [4]: > 100 µM
TGI [5]: > 100 µM
TGI [6]: > 100 µM
TGI [7]: > 100 µM
TGI [8]: > 100 µM
TGI [9]: > 100 µM
TGI [10]: > 100 µM
TGI [11]: > 100 µM
TGI [12]: 65.2 µM
TGI [54]: > 100 µM
TGI [13]: > 100 µM
TGI [14]: > 100 µM
TGI [15]: > 100 µM
TGI [55]: 65.4 µM
TGI [16]: > 100 µM
TGI [17]: > 100 µM
TGI [18]: > 100 µM
TGI [19]: > 100 µM
TGI [20]: > 100 µM
TGI [21]: > 100 µM
TGI [22]: > 100 µM
TGI [23]: > 100 µM
TGI [24]: > 100 µM
TGI [25]: > 100 µM
TGI [26]: > 100 µM
TGI [27]: > 100 µM
TGI [28]: > 100 µM
TGI [29]: > 100 µM
TGI [30]: > 100 µM
TGI [31]: > 100 µM
TGI [32]: > 100 µM
TGI [33]: > 100 µM
TGI [34]: > 100 µM
TGI [35]: > 100 µM
TGI [36]: > 100 µM
TGI [37]: > 100 µM
TGI [39]: > 100 µM
TGI [56]: > 100 µM
TGI [40]: > 100 µM
TGI [41]: > 100 µM
TGI [42]: > 100 µM
TGI [44]: > 100 µM
TGI [57]: > 100 µM
TGI [45]: > 100 µM
TGI [46]: > 100 µM
TGI [47]: 66.2 µM
TGI [49]: > 100 µM
TGI [58]: > 100 µM
TGI [59]: > 100 µM
TGI [50]: > 100 µM
TGI [51]: > 100 µM
TGI [52]: > 100 µM
TGI [53]: > 100 µM
